Laboratory results reported in ChEMBL document CHEMBL1201862, “PubChem BioAssay data set” (2004).
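Results reflect a 48-hour exposure of cells in 96-well plates to compound at five concentrations. The concentration for 50% growth inhibition is given as GI50.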 Calls of active or inactive are those of the source. Rule as the data show it: active = GI50 up to about 1.1 µM and inactive = higher.

Tests used:
Assay in all cases: growth of human tumour cells (NCI), 48 h
[1] = tested on: HL-60
[2] = tested on: HOP-62
[3] = tested on: HT-29
[4] = tested on: IGROV-1
[5] = tested on: K562
[6] = tested on: KM12
[7] = tested on: M14
[8] = tested on: NCI-H226
[9] = tested on: NCI-H522
[10] = tested on: SF-268
[11] = tested on: SF-295
[12] = tested on: SF-539
[13] = tested on: SK-MEL-28
[14] = tested on: SN12C
[15] = tested on: SW-620
[16] = tested on: UO-31
[17] = tested on: MDA-MB-231
[18] = tested on: PC-3
[19] = tested on: Hs-578T

Measured: GI50

O=C(O)c1ccc(C2C3C=CC(C3)C2[N+](=O)[O-])cc1 (configuration not stated)
inactive: [1] > 100 µM | [2] > 100 µM | [3] > 100 µM | [4] > 100 µM | [5] > 100 µM | [6] > 100 µM | [7] > 100 µM | [8] > 100 µM | [9] > 100 µM | [10] > 100 µM | [11] > 100 µM | [12] > 100 µM | [13] > 100 µM | [14] > 100 µM | [15] > 100 µM | [16] > 100 µM

COc1ccc2nc3ccc(OC)cc3c(SCc3ccc([N+](=O)[O-])cc3)c2c1
inactive: [1] > 100 µM | [2] 78.9 µM | [3] 24.1 µM | [4] 63.5 µM | [5] > 100 µM | [6] > 100 µM | [7] > 100 µM | [17] 39.2 µM | [8] 42.8 µM | [9] 17.3 µM | [18] 68.2 µM | [10] 54.7 µM | [11] 31.5 µM | [12] 39.2 µM | [13] > 100 µM | [14] > 100 µM | [15] > 100 µM | [16] > 100 µM

Cc1c(C)c([N+](=O)[O-])c2c(c1N)C(=O)c1ccccc1C2=O
inactive: [1] > 100 µM | [2] > 100 µM | [3] 55.2 µM | [4] > 100 µM | [5] > 100 µM | [6] > 100 µM | [7] > 100 µM | [8] > 100 µM | [9] 61.7 µM | [10] > 100 µM | [11] > 100 µM | [12] > 100 µM | [13] > 100 µM | [14] > 100 µM | [15] > 100 µM | [16] > 100 µM

C[C@H]1CC(=O)C2=CCCC3(SCCCS3)[C@@H]2[C@H]1CO
inactive: [1] 27.1 µM | [2] > 100 µM | [3] > 100 µM | [4] > 100 µM | [5] 47.1 µM | [6] > 100 µM | [7] > 100 µM | [8] > 100 µM | [9] > 100 µM | [10] > 100 µM | [11] > 100 µM | [12] > 100 µM | [13] > 100 µM | [14] > 100 µM | [15] > 100 µM | [16] > 100 µM

CCOC(OCC)[C@H](N)[C@@H](O)[C@@H](O)[C@H]1COC(C)(C)O1
inactive: [2] > 100 µM | [3] > 100 µM | [19] > 100 µM | [4] > 100 µM | [5] > 100 µM | [6] > 100 µM | [7] > 100 µM | [17] > 100 µM | [8] > 100 µM | [18] > 100 µM | [10] > 100 µM | [11] > 100 µM | [13] > 100 µM | [14] > 100 µM | [15] > 100 µM | [16] > 100 µM
